Results: patent publication US20240398835A1, “METHODS FOR TREATING CONGENITAL DISORDERS OF GLYCOSYLATION” (priority 2023, published 2024)

Tests used:
Assay type in all cases: in vivo
[1] = test system: R318W PM 2 (R318W Human / R298W C. elegans point mutation); test: C. elegans model growth assay (worm body area), R318W PM 2 line
Procedure: (§1) Five lines of GMPPA disorder models were generated in C. elegans using CRISPR/Cas9 gene editing: • One line GMPPA Human (Y47DA9.1 C. elegans) knockout (GMPPA KO) • Two lines T292P Human (S272P C. elegans) point mutation (T292P PM1, T292P PM2) • Two lines R318W Human (R298W C. elegans) point mutation (R318W PM1, R318W PM2)
(§2) These animals were tested for growth delays, temperature sensitivity, and mitotic stress sensitivity, with the dual goals of validating C. elegans as a model for studying GMPPA-CDG and identifying a robust phenotype that could be leveraged in future screening of novel pharmaceuticals for the treatment of the deleterious effects of this mutation.
(§3) To assess the effect of Compounds 1-6 on mitigating the growth deficit of C. elegans carrying a mutation in the GMPPA gene, the growth of the five mutant GMPPA C. elegans lines that were either untreated or treated with one of 6 different drugs (Compounds 1-6), at different concentrations, was measured. C. elegans were allowed to develop to the LI larval stage in the liquid solution. LI C. elegans were then placed onto plates seeded with inactivated OP50 containing the appropriate drug treatment in 0.1% DMSO, and were kept at 20° C. throughout the assay. About thirty 30 C. elegans synchronized at the LI stage of each genotype were placed onto 3 replicate plates containing the appropriate drug treatment and allowed to grow to adulthood at 20° C. Plates were imaged at the same time each day using the WormLab system (MBF Bioscience). Worm area was measured using the WormLab software. Animal sizes of each treatment were compared to sizes of untreated N2 control animals, as well as untreated animals of the same genotype on each day using ANOVA, followed by post-hoc t-tests corrected for multiple comparisons using the Benjamini-Hochberg correction procedure. Analyses were performed and plotted using custom R code.
(§4) To study the effects of the different drugs on growth, the size (body area) of animals treated with each concentration of each drug was compared to the size (body area) of untreated animals of the same genotype on the same day.

[2] = test system: R318W PM 1 (R318W Human / R298W C. elegans point mutation); test: C. elegans model growth assay (worm body area), R318W PM 1 line
Procedure: as §1, §2, §3, §4

[3] = test system: T292P PM 1 (T292P Human / S272P C. elegans point mutation); test: C. elegans model growth assay (worm body area), T292P PM 1 line
Procedure: as §1, §2
as §3, with “code. […]” for “code.”

[4] = test system: GMPPA KO (GMPPA Human / Y47DA9.1 C. elegans knockout); test: C. elegans model growth assay (worm body area), GMPPA KO line
Procedure: as §1, §2, §3, §4

[5] = test system: T292P PM 2 (T292P Human / S272P C. elegans point mutation); test: C. elegans model growth assay (worm body area), T292P PM 2 line; settings: 200 nM, Young Adult
Procedure: as §1, §2
To assess the effect of Compounds 1-6 on mitigating the growth deficit of C. elegans carrying a mutation in the GMPPA gene, the growth of the five mutant GMPPA C. elegans lines that were either untreated or treated with one of 6 different drugs (Compounds 1-6), at different concentrations, was measured. C. elegans were allowed to develop to the LI larval stage in the liquid solution. LI C. elegans were then placed onto plates seeded with inactivated OP50 containing the appropriate drug treatment in 0.1% DMSO, and were kept at 20° C. throughout the assay. […] Worm area was measured using the WormLab software. […]

[6] = 200 μM (third concentration group), Young Adult
[7] = 20 μM (as printed, second 20 μM group, last in table), Adult (day 5)
[8] = 20 μM (as printed, second 20 μM group, last in table), Young Adult
[9] = 200 μM (third concentration group), Adult (day 5)
[10] = 200 μM (third concentration group), Adult (day 4)

| SMILES | % Increase size (compared to untreated) ([1]; 2 μM, Adult (day 5)) [%] | % Increase size (compared to untreated) ([2]; 20 nM, Adult (day 5)) [%] | % Increase size (compared to untreated) ([2]; 200 nM, Adult (day 5)) [%] | % Increase size (compared to untreated) ([2]; 2 μM, Adult (day 5)) [%] | % Increase size (compared to untreated) ([2]; 2 μM, Young Adult) [%] | % Increase size (compared to untreated) ([1]; 2 μM, Young Adult) [%] | % Increase size (compared to untreated) [2, 7] [%] | % Increase size (compared to untreated) [2, 8] [%] | % Increase size (compared to untreated) ([2]; 20 μM, Adult (day 5)) [%] | % Increase size (compared to untreated) [2, 9] [%] | % Increase size (compared to untreated) [2, 6] [%] | % Increase size (compared to untreated) [4, 10] [%] | % Increase size (compared to untreated) ([1]; 2 μM, Adult (day 4)) [%] | % Increase size (compared to untreated) ([1]; 20 μM, Young Adult) [%] | % Increase size (compared to untreated) ([2]; 20 μM, L3) [%] | % Increase size (compared to untreated) ([2]; 20 μM, Young Adult) [%] | % Increase size (compared to untreated) ([4]; 2 μM, Adult (day 4)) [%] | % Increase size (compared to untreated) ([1]; 200 nM, Adult (day 4)) [%] | % Increase size (compared to untreated) ([2]; 20 nM, Young Adult) [%] | % Increase size (compared to untreated) ([2]; 20 nM, L3) [%] | also measured |
| --- | --- | --- | --- | --- | --- | --- | --- | --- | --- | --- | --- | --- | --- | --- | --- | --- | --- | --- | --- | --- | --- |
| C[C@H](NCc1ccc(OCc2cccc(F)c2)cc1)C(N)=O [Compound 5, (S)-2-((4-((3-fluorobenzyl)oxy)benzyl)amino) propanamide] | 5.51 | 11.09 | 9.35 | 9.47 | 16.21 | – | – | – | – | – | – | – | – | – | – | – | – | – | – | – | % Increase size (compared to untreated) ([2]; 2 μM, L3): 16.41% |
| CC(O)(CS(=O)(=O)c1ccc(F)cc1)C(=O)Nc1ccc(C#N)c(C(F)(F)F)c1 (centres unmarked) [Compound 2, N-(4-cyano-3-(trifluoromethyl)phenyl)-3-((4-fluorophenyl)sulfonyl)-2-hydroxy-2-methylpropanamide] | 9.82 | – | – | 13.14 | 15.14 | 20.08 | 12.37 | 9.40 | 6.98 | 13.42 | 15.18 | 10.83 | – | – | – | – | – | – | – | – | % Increase size (compared to untreated) [3, 6]: 16.12%; % Increase size (compared to untreated) ([4]; 20 μM, Adult (day 4)): 9.60% |
| CCn1cc(C(=O)O)c(=O)c2cnc(N3CCNCC3)nc21 [Compound 3, 8-Ethyl-5,8-dihydro-5-oxo-2-(1-piperazinyl)pyrido (2,3-d)pyrimidine-6-carboxylic acid] | – | – | – | 8.12 | 18.05 | – | 12.27 | 15.84 | 12.83 | 10.51 | 14.43 | 7.92 | 11.20 | 14.52 | 14.96 | 9.03 | 12.37 | – | – | – | % Increase size (compared to untreated) ([1]; 20 μM, Adult (day 5)): 5.57%; % Increase size (compared to untreated) ([1]; 20 μM, L3): 11.65%; % Increase size (compared to untreated) ([1]; 200 μM, Adult (day 4)): 8.02%; % Increase size (compared to untreated) ([1]; 200 μM, Adult (day 5)): 5.96%; % Increase size (compared to untreated) ([3]; 2 μM, Adult (day 5)): 14.96%; % Increase size (compared to untreated) ([4]; 2 μM, Young Adult): 12.64% |
| Cc1nc2n(c(=O)c1CCN1CCC(c3noc4cc(F)ccc34)CC1)CCCC2O (centres unmarked) [Compound 4, 3-(2-(4-(6-fluorobenzo[d]isoxazol-3-yl)piperidin-1-yl)ethyl)-9-hydroxy-2-methyl-6,7,8,9-tetrahydro-4H-pyrido[1,2-a]pyrimidin-4-one] | 6.08 | 10.32 | 11.03 | 9.47 | 14.09 | – | – | – | 10.72 | – | – | – | – | – | – | – | 6.86 | 8.35 | 11.38 | – | % Increase size (compared to untreated) ([3]; 20 μM, Adult (day 5)): 6.70%; % Increase size (compared to untreated) ([4]; 20 nM, Adult (day 4)): 7.18% |
| Cc1ccc2c([nH]c(=O)c3c(=O)cc(C(=O)OCCC(C)C)oc32)c1C [Compound 6, 3-methylbutyl 7,8-dimethyl-4,5-dioxo-6H-pyrano[3,2-c]quinoline-2-carboxylate] | – | 11.15 | 12.15 | 7.41 | 16.84 | 18.25 | – | – | 10.80 | – | – | – | 8.97 | 22.20 | 13.93 | 18.41 | 6.58 | 7.96 | 27.26 | 18.59 | % Increase size (compared to untreated) ([1]; 20 nM, Young Adult): 20.62%; % Increase size (compared to untreated) ([1]; 200 nM, Young Adult): 25.23%; % Increase size (compared to untreated) [5]: 13.63%; % Increase size (compared to untreated) ([2]; 200 nM, Young Adult): 18.38%; % Increase size (compared to untreated) ([4]; 20 μM, Young Adult): 13.22% |
| CC(C)(C)NC(=O)[C@H]1CC[C@H]2[C@@H]3CC[C@H]4NC(=O)C=C[C@]4(C)[C@H]3CC[C@]12C [Compound 1, finasteride] | – | 8.79 | 7.28 | 9.08 | 12.70 | – | – | – | – | – | – | – | – | – | 10.73 | – | 6.47 | – | 11.59 | 12.77 | % Increase size (compared to untreated) ([2]; 200 nM, L3): 13.73%; % Increase size (compared to untreated) ([2]; 200 nM, Young Adult): 16.92% |
